Assay results from paper PMC5545217 (Nature Communications, 2017).
Read-outs that look alike come from different tables or passages of the source.

Columns and labels:
M. tuberculosis ATP-PRT [1] = biological target: T1, M. tuberculosis ATP-PRT (Mycobacterium tuberculosis, UniProt P9WMN1); experiment: biochemical
ATP-PRT [2] = biological target: T2, ATP-PRT (Mycobacterium tuberculosis, UniProt P9WMN1)
M. tuberculosis ATP-PRT [3] = biological target: T1, M. tuberculosis ATP-PRT; details: cited from earlier work
ATP-PRT [4] = biological target: T2, ATP-PRT; experiment: Competition saturation transfer difference (STD) NMR; assay type: binding; details: 20 μM ATP-PRT, 400 μM TIH, L-His 0-3000 μM, pH 8.0
Description: NMR spectra were recorded at 25 °C on a Bruker Avance-600 spectrometer equipped with a triple resonance cryo-probe and operating at a ^1H frequency of 600 MHz. […] Spectra with on-resonance pre-saturation of the enzyme at 0.8 ppm were recorded with a saturation time of 2 s. An off-resonance control spectrum was recorded with a saturation time of 2 s. Water suppression was achieved by excitation sculpting. Data processing and spectral subtractions were performed using Bruker TopSpin 3.2 software.

crystal structure = biological target: the molecule itself; experiment: crystal structure

In the case of O=P(O)(O)OC[C@H]1O[C@H](OP(=O)(O)OP(=O)(O)O)[C@H](O)[C@@H]1O [PRPP, 5-phospho-α-D-ribose 1-diphosphate], the “K m,PRPP” value (M. tuberculosis ATP-PRT [1]; activation experiment, unactivated reaction, varying PRPP) is reported as 190 ± 30 µM.

N[C@@H](Cc1cccs1)C(=O)O [TIH, 3-(2-thienyl)-L-alanine] gave an ATP-PRT activity restored (M. tuberculosis ATP-PRT [1]; 400 µM L-His plus close to 4 mM TIH) of 100%, a V max (M. tuberculosis ATP-PRT [1]; [TIH] 0.25 mM, L-His inhibition pattern, varying ATP) of 0.28 ± 0.01 s⁻¹ and a V max (M. tuberculosis ATP-PRT [1]; [TIH] 0.8 mM, L-His inhibition pattern, varying ATP) of 0.38 ± 0.01 s⁻¹. The V max (M. tuberculosis ATP-PRT [1]; [TIH] 4 mM, L-His inhibition pattern, varying ATP) was 0.76 ± 0.01 s⁻¹, the Emax (M. tuberculosis ATP-PRT [1]; read-out: ATP-PRT activity increased up to (maximal activation)) was at most 433% and the αATP (M. tuberculosis ATP-PRT [1]; varying ATP, Eq. 4) was 1.4 ± 0.2. For the same molecule, the βATP (M. tuberculosis ATP-PRT [1]; varying ATP, Eq. 4) was 4.9 ± 0.2, the “α (PRPP)” value (M. tuberculosis ATP-PRT [1]; varying PRPP, Eq. 4) was 1.1 ± 0.4 and the “β (PRPP)” value (M. tuberculosis ATP-PRT [1]; varying PRPP, Eq. 4) was 4.9 ± 0.5. The “Drift time of main ATP-PRT form” value (ATP-PRT [2]; pH 6.8, charge state +28) was 44.2 ms and the “Drift time of main ATP-PRT form” value (ATP-PRT [2]; pH 9.0, charge state +28) was 44.1 ms.

In the case of Nc1ncnc2c1ncn2[C@@H]1O[C@H](COP(=O)(O)OP(=O)(O)OP(=O)(O)O)[C@@H](O)[C@H]1O [ATP], the “K m,ATP” value (M. tuberculosis ATP-PRT [1]; [TIH] 0 mM, L-His inhibition pattern) is reported as 230 ± 30 µM, the “K m,ATP” value (M. tuberculosis ATP-PRT [1]; [TIH] 0.25 mM, L-His inhibition pattern) is reported as 200 ± 20 µM and the “K m,ATP” value (M. tuberculosis ATP-PRT [1]; [TIH] 0.8 mM, L-His inhibition pattern) is reported as 180 ± 20 µM. For the same molecule, the “K m,ATP” value (M. tuberculosis ATP-PRT [1]; [TIH] 4 mM, L-His inhibition pattern) was 160 ± 20 µM and the “K m,ATP” value (M. tuberculosis ATP-PRT [1]; activation experiment, unactivated reaction, varying ATP) was 100 ± 10 µM.

With N[C@@H](Cc1c[nH]cn1)C(=O)O [L-His, L-histidine, reference compound] the IC50 (M. tuberculosis ATP-PRT [1]) was 22 ± 4 µM, the “ATP-PRT activity at saturating L-His” value (M. tuberculosis ATP-PRT [1]; 400 µM L-His (20-fold K i)) was “fully inhibited” and the Ki (M. tuberculosis ATP-PRT [1]; L-His inhibition vs ATP, [TIH] 0 mM, read-out: K i,ATP) was 20 ± 1 µM. For the same molecule, the Ki (M. tuberculosis ATP-PRT [1]; linear noncompetitive inhibition vs. PRPP, no TIH, read-out: K i,PRPP) was 16 ± 1 µM, the “Hill number (n H) for L-His inhibition” value (M. tuberculosis ATP-PRT [3]) was 1.5 and the “Competition STD NMR outcome” value (ATP-PRT [4]) was “displacement of TIH by L-His”. The “Drift time of main ATP-PRT form” value (ATP-PRT [2]; pH 6.8, charge state +28) was 44.1 ms and the “Drift time of main ATP-PRT form” value (ATP-PRT [2]; pH 9.0, charge state +28) was 44.2 ms.

B1: Mycobacterium tuberculosis ATP-phosphoribosyltransferase (enzyme)
chain: MLRVAVPNKGALSEPATEILAEAGYRRRTDSKDLTVIDPVNNVEFFFLRPKDIAIYVGSGELDFGITGRDLVCDSGAQVRERLALGFGSSSFRYAAPAGRNWTTADLAGMRIATAYPNLVRKDLATKGIEATVIRLDGAVEISVQLGVADAIADVVGSGRTLSQHDLVAFGEPLCDSEAVLIERAGTDGQDQTEARDQLVARVQGVVFGQQYLMLDYDCPRSALKKATAITPGLESPTIAPLADPDWVAIRALVPRRDVNGIMDELAAIGAKAILASDIRFCRF
notes: also called ATP-PRT; HisG
In the case of B1, the “stoichiometry N” value (crystal structure) is reported as 6.
